Laboratory results reported in patent US7294637B2 (Sepracor, Inc., priority 2000, dated 2007).
Like-named read-outs stand apart in the source and are kept apart here.

Key:
[1] = target: dopamine transporter (Homo sapiens, UniProt Q01959); experiment: DA uptake: displacement of dopamine ligands in vitro (methods of Gu et al.); conditions: DA Uptake, Uptake Profile (IC50, nM), displacement of dopamine ligands in vitro
[2] = target: DAT (Homo sapiens, UniProt Q01959); experiment: cell-based; parameters: expressed in transfected cells; conditions: hDAT cell line; read-out: DA Uptake, Functional Assays (antagonism, EC50)
[3] = target: T1, norepinephrine transporter (Homo sapiens, UniProt P23975); experiment: Functional activity, norephinephrine uptake inhibition in MDCK cell lines; type: cell-based
[4] = target: T2, serotonin transporter (Homo sapiens, UniProt P31645); experiment: 5-HT uptake: displacement of serotonin ligands in vitro (methods of Gu et al.); type: binding
[5] = target: T1, norepinephrine transporter; experiment: NE uptake: displacement of norephinephrine ligands in vitro (methods of Galli et al.); type: binding
[6] = target: T2, serotonin transporter; experiment: Functional activity, serotonin uptake inhibition in human HEK-293 cell lines; type: cell-based; parameters: expressed in transfected cells; host or cells: HEK-293; conditions: human HEK-293 cell lines; read-out: 5-HT Uptake, Functional Assays (antagonism, EC50)
[7] = displacement of serotonin ligands in vitro, read-out: 5-HT Uptake, Uptake Profile (IC50)
[8] = NE Uptake, Uptake Profile (IC50, nM)
[9] = read-out: NE Uptake, Uptake Profile (IC50)
[10] = 5-HT Uptake, Uptake Profile (IC50, nM)

T2 sequence (P31645 whole entry): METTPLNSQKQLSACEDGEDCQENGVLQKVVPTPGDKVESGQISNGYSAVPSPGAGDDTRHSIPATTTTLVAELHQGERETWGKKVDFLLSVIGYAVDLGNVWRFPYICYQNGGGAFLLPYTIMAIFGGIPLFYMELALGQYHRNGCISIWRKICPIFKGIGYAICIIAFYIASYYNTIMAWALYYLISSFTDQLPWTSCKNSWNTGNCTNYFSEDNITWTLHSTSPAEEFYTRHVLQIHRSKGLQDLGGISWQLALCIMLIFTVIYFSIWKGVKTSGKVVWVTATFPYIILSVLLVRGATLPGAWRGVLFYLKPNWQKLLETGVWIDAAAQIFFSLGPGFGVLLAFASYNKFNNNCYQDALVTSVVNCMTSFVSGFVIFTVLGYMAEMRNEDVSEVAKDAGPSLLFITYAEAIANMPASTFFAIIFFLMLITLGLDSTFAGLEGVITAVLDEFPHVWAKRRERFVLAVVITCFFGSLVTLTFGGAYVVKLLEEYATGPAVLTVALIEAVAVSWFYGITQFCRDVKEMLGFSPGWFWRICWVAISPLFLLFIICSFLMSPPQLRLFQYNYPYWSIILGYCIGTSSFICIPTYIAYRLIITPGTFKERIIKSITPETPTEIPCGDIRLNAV
T1 sequence (P23975 whole entry): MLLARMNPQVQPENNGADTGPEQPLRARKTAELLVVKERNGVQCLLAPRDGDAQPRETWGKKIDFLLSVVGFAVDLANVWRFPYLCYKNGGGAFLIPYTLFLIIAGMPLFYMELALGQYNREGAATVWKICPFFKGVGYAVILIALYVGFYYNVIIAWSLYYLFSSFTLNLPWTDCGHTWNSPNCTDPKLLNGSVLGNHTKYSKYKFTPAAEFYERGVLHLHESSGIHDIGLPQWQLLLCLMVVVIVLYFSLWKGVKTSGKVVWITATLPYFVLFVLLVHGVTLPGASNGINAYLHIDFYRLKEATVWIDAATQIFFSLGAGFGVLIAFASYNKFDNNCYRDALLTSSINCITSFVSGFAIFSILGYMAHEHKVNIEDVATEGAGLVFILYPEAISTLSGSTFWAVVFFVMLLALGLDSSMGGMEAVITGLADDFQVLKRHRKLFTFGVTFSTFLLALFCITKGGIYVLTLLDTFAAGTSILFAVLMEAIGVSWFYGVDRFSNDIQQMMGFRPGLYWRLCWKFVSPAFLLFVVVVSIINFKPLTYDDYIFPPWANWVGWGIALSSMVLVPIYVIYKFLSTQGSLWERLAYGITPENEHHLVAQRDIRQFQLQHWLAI
Chain of dopamine transporter (Q01959 whole entry): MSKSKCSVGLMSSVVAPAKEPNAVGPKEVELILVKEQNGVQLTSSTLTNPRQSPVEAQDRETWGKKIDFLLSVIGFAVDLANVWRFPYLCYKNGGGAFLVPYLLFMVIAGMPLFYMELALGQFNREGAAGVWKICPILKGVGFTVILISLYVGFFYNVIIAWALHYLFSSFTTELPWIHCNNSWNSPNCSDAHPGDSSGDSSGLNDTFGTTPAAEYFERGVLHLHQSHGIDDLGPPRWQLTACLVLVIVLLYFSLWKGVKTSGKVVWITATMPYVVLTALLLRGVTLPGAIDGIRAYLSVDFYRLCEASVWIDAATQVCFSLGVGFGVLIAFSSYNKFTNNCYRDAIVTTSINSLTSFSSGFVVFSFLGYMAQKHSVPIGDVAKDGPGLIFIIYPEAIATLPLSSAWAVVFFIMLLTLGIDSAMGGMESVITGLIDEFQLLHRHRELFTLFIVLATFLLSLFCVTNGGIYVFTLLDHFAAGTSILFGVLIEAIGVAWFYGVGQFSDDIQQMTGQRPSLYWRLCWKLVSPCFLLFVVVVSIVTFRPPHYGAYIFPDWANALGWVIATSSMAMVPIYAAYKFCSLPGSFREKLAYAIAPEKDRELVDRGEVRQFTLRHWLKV
Chain of DAT (Q01959 whole entry): as above

| Compound | IC50 [1] [nM] | EC50 [2] [nM] | EC50 [3] [nM] | IC50 [4, 7] [nM] | IC50 [5, 8] [nM] | EC50 [6] [nM] | IC50 [5, 9] [nM] | IC50 [4, 10] [nM] | IC50 ([4]; read-out: 5-HT Uptake, Uptake Profile (IC50)) [nM] |
| --- | --- | --- | --- | --- | --- | --- | --- | --- | --- |
| OC[C@H]1[C@@H](COc2ccc(C(F)(F)F)cc2)CCCN1CC1(c2ccc(Cl)cc2)CCC1 (racemic) [compound 82, cis-[1-[1-(4-chloro-phenyl)-cyclobutylmethyl]-3-(4-trifluoromethyl-phenoxymethyl)-piperidin-2-yl]-methanol] | < 100 | < 100 | < 1000 | < 1000 | < 1000 | – | – | – | – |
| OC(CN1CCCC(COc2ccc(C(F)(F)F)cc2)C1)C1(c2ccccc2OC(F)(F)F)CCC1 (single isomer, unassigned) [compound 224, 1-[1-(2-Trifluoromethoxy-phenyl)-cyclobutyl]-2-[3-(4-trifluoromethyl-phenoxymethyl)-piperidin-1-yl]-ethanol] | > 1000 | > 1000 | > 1000 | > 1000 | – | < 1000 | > 1000 | – | – |
| OCC1CCCN(CC2(c3ccc(Cl)cc3)CCC2)C1 (stereo not shown) [compound 2] | < 1000 | < 100 | – | – | > 1000 | – | – | > 1000 | – |
| FC(F)(F)c1ccc(OCC2CCCN(CC3(c4ccc(Cl)cc4)CCC3)C2)cc1 (stereo not shown) [compound 7] | < 100 | < 100 | – | – | > 1000 | – | – | > 1000 | – |
| FC(F)(F)c1ccc(OCC2CCCN(CC3(c4ccc(Cl)cc4)CCOCC3)C2)cc1 (stereo not shown) [compound 159, 1-[4-(4-Chloro-phenyl)-tetrahydro-piran-4-ylmethyl]-3-(4-trifluoromethyl-phenoxymethyl)piperidine] | < 100 | – | – | < 1000 | < 1000 | – | – | – | – |
| CO[C@@H](CN1CCC[C@@H](COc2ccc(C(F)(F)F)cc2)C1)C1(c2ccc(Cl)cc2)CCC1 [compound 160] | < 100 | – | – | < 1000 | > 1000 | – | – | – | – |
| CO[C@H](CN1CCC[C@@H](COc2ccc(C(F)(F)F)cc2)C1)C1(c2ccc(Cl)cc2)CCC1 [compound 161] | < 10 | – | – | < 1000 | < 1000 | – | – | – | – |
| CO[C@@H](CN1CCC[C@H](COc2ccc(C(F)(F)F)cc2)C1)C1(c2ccc(Cl)cc2)CCC1 [compound 162] | < 100 | – | – | < 1000 | > 1000 | – | – | – | – |
| CO[C@H](CN1CCC[C@H](COc2ccc(C(F)(F)F)cc2)C1)C1(c2ccc(Cl)cc2)CCC1 [compound 163] | < 10 | – | – | < 1000 | > 1000 | – | – | – | – |
| COc1ccccc1C1(C(O)CN2CCCC(COc3ccc(C(F)(F)F)cc3)C2)CCC1 (stereo not shown) [compound 164] | < 10 | – | – | < 100 | < 1000 | – | – | – | – |
| OC(CN1CCCC(COc2ccc(C(F)(F)F)cc2)C1)C1(c2ccc3c(c2)OCO3)CCC1 (stereo not shown) [compound 165] | < 10 | – | – | < 100 | < 100 | – | – | – | – |
| OC(CN1CCCC(COc2ccc(C(F)(F)F)cc2)C1)C1(c2ccc(C(F)(F)F)cc2)CCC1 (stereo not shown) [compound 166] | < 10 | – | – | > 1000 | < 100 | – | – | – | – |
| OC1(COc2ccc(C(F)(F)F)cc2)CCCN(CC2(c3ccc(Cl)cc3)CCC2)C1 (stereo not shown) [compound 167, [1-(4-Chloro-phenyl)-cyclobutylmethyl]-3-(4-trifluoromethyl-phenoxymethyl)-piperidin-3-ol] | > 1000 | – | – | – | – | – | > 1000 | – | > 1000 |
| FC(F)(F)c1ccc(OCC2CCCCN(CC3(c4ccc(Cl)cc4)CCC3)C2)cc1 (stereo not shown) [compound 168, 1-[1-(4-Chloro-phenyl)-cyclobutylmethyl]-3-(4-trifluoromethyl-phenoxymethyl)-azepane] | < 100 | – | – | > 1000 | < 1000 | – | – | – | – |
| COc1ccc(C2(CN3CCC[C@@H](COc4ccc(OC(F)(F)F)cc4)C3)CCC2)cc1 [compound 170, (R)-1-[1-(4-Methoxy-phenyl)-cyclobutylmethyl]-3-(4-trifluoromethoxy-phenoxymethyl)-piperidine] | < 10 | – | – | < 1000 | < 1000 | – | – | – | – |
| COc1ccc(C2(CN3CCC[C@H](COc4ccc(OC(F)(F)F)cc4)C3)CCC2)cc1 [compound 171, (S)-1-[1-(4-Methoxy-phenyl)-cyclobutylmethyl]-3-(4-trifluoromethoxy-phenoxymethyl)-piperidine] | < 10 | – | – | < 1000 | < 1000 | – | – | – | – |

| Compound | IC50 [1] [nM] | EC50 [2] [nM] | EC50 [3] [nM] | IC50 [4, 7] [nM] | IC50 [5, 8] [nM] | EC50 [6] [nM] | IC50 [5, 9] [nM] | IC50 [4, 10] [nM] | IC50 ([4]; read-out: 5-HT Uptake, Uptake Profile (IC50)) [nM] |
| --- | --- | --- | --- | --- | --- | --- | --- | --- | --- |
| FC(F)(F)c1ccc(OCC2CCCN(CCc3c[nH]c4ccccc34)C2)cc1 (stereo not shown) [compound 180, 3-{2-[3-(4-Trifluoromethyl-phenoxymethyl)-piperidin-1-yl]-ethyl}-1H-indole] | < 1000 | – | – | < 1000 | < 1000 | – | – | – | – |
| FC(F)(F)c1ccc(OCC2CCCN(CCc3ccc(-c4ccccc4)cc3)C2)cc1 (stereo not shown) [compound 181, 1-(2-Biphenyl-4-yl-ethyl)-3-(4-trifluoromethyl-phenoxymethyl)-piperidine] | > 1000 | – | – | – | < 1000 | – | – | < 100 | – |
| FC(F)(F)c1cc(COC2CCCN(CC3(c4ccc(Cl)cc4)CCC3)C2)cc(C(F)(F)F)c1 (stereo not shown) [compound 189, 3-(3,5-Bis-trifluoromethyl-benzyloxy)-1-[1-(4-chloro-phenyl)-cyclobutylmethyl]-piperidine] | > 1000 | – | – | > 1000 | – | – | > 1000 | – | – |
| OC(CN1CCCC(COc2ccc(C(F)(F)F)cc2)C1)(c1ccccc1)C1CCCCC1 (stereo not shown) [compound 191, 1-Cyclohexyl-1-phenyl-2-[3-(4-trifluoromethyl-phenoxymethyl)-piperidin-1-yl]-ethanol] | > 1000 | – | – | > 1000 | – | – | > 1000 | – | – |
| COC(CN1CCC[C@@H](CCc2ccccc2)C1)c1ccc(Cl)cc1 (stereo partly drawn) [compound 196, 1-[2-(4-Chloro-phenyl)-2-methoxy-ethyl]-3-(R)-phenethyl-piperidine] | < 100 | – | – | < 10 | < 100 | – | – | – | – |
| CC(O)(CN1CCC[C@@H](CCc2ccccc2)C1)c1ccc(Cl)cc1 (stereo partly drawn) [compound 197, 2-(4-Chloro-phenyl)-1-(3 (R)-phenethyl-piperidin-1-yl)-propan-2-ol] | < 1000 | – | – | < 10 | < 1000 | – | – | – | – |
| OC(CN1CCCC(CCc2ccc(OC(F)(F)F)cc2)C1)c1ccc(Cl)cc1 (stereo not shown) [compound 201] | < 10 | – | – | < 1000 | < 1000 | – | – | – | – |
| OC(CN1CCCC(COc2ccc(C(F)(F)F)cc2)C1)C1(c2ccc(OC(F)(F)F)cc2)CCC1 (stereo not shown) [compound 206, 1-[1-(4-Trifluoromethoxy-phenyl)-cyclobutyl]-2-[3-(4-trifluoromethyl-phenoxymethyl)-piperidin-1-yl]-ethanol] | < 100 | – | – | < 1000 | < 1000 | – | – | – | – |
| OC(CN1CCCC(COc2ccc(OC(F)(F)F)cc2)C1)C1(c2ccc(Cl)cc2)CCC1 (stereo not shown) [compound 210, 1-[1-(4-Chloro-phenyl)-cyclobutyl]-2-[3-(4-trifluoromethoxy-phenoxymethyl)-piperidin-1-yl]-ethanol] | < 10 | – | – | < 1000 | < 100 | – | – | – | – |
| OC(CN1CCCC(COc2ccc(OC(F)(F)F)cc2)C1)C1(c2ccc(OC(F)(F)F)cc2)CCC1 (stereo not shown) [compound 212, 2-[3-(4-Trifluoromethoxy-phenoxymethyl)-piperidin-1-yl]-1-[1-(4-trifluoromethoxy-phenyl)-cyclobutyl]-ethanol] | < 100 | – | – | < 1000 | < 1000 | – | – | – | – |
| CNC(CN1CCC[C@@H](CCc2ccccc2)C1)c1ccc(Cl)cc1 (stereo partly drawn) [compound 213, [1-(4-Chloro-phenyl)-2-(3(R)-phenethyl-piperidin-1-yl)-ethyl]-methyl-amine] | < 1000 | – | – | < 100 | < 1000 | – | – | – | – |
| CC(CN1CCCC(COc2ccc(C(F)(F)F)cc2)C1)C(O)c1ccc(Cl)cc1 (stereo not shown) [compound 218, 1-(4-Chloro-phenyl)-2-methyl-3-[3-(4-trifluoromethyl-phenoxymethyl)-piperidin-1-yl]-propan-1-ol] | < 10 | – | – | < 1000 | > 1000 | – | – | – | – |
| COc1ccc2[nH]cc(CCN3CCCC(COc4ccc(C(F)(F)F)cc4)C3)c2c1 (stereo not shown) [compound 220, 5-Methoxy-3-{2-[3-(4-trifluoromethyl-phenoxymethyl)-piperidin-1-yl]-ethyl}-1H-indole] | < 1000 | – | – | < 100 | < 1000 | – | – | – | – |
| OC(CN1CCCC(COc2ccc(C(F)(F)F)cc2)C1)c1c[nH]c2ccc(Cl)cc12 (stereo not shown) [compound 222, 1-(5-Chloro-1H-indol-3-yl)-2-[3-(4-trifluoromethyl-phenoxymethyl)-piperidin-1-yl]-ethanol] | > 1000 | – | – | < 1000 | > 1000 | – | – | – | – |
| NCC1CCCN(CC2(c3ccc(Cl)cc3)CCC2)C1 (stereo not shown) [compound 230, C-{1-[1-(4-Chloro-phenyl)-cyclobutylmethyl]-piperidin-3-yl}-methylamine] | < 100 | – | – | > 1000 | – | – | > 1000 | – | – |
| COc1ccccc1C1(C(O)CN2CCCC(COc3ccc4c(c3)OCO4)C2)CCC1 (stereo not shown) [compound 232, 2-[3-(Benzo[1,3]dioxol-5-yloxymethyl)-piperidin-1-yl]-1-[1-(2-methoxy-phenyl)-cyclobutyl]-ethanol] | < 1000 | – | – | < 1000 | < 1000 | – | – | – | – |
